# Test results taken from article PMC11649037, “Monitoring conformational changes in the human neurotransmitter transporter homologue LeuT with ^19F‐NMR spectroscopy” (Journal of Neurochemistry, 2024).
# Biological target: T1, LeuT (Leucine Transporter) (Aquifex aeolicus, UniProt O67854, K398C)
# T1 construct: gene snf; LeuT K398C labelled with BTFA, in DDM micelles
# Test: 1D […]-NMR, […] L-ala with […] Na+ (shift to outward-facing closed state)
# Format: binding
smiles,measurement,value
C[C@H](N)C(=O)O [Alanine],"1D 19F-NMR, 4 mM L-ala with 200 mM Na+ (shift to outward-facing closed state)",Alanine/Na^+ K398C‐BTFA LeuT (Figure 2e) and Phenylalanine/Na^+ K398C‐BTFA LeuT (Figure 2f) which show a similar shift toward S1 resonance
